Measurements from patent US8119614B2, “Substitution derivatives of N6-benzyladenosine, methods of their preparation, their use for preparation of drugs, cosmetic preparations and growth regulators, pharmaceutical preparations, cosmetic preparations and growth regulators containing these compounds” (Ustav Experimentalni Botaniky Akademie Ved Ceske Republiky, priority 2002, dated 2012).

Legend:
[1] = tested on: breast carcinoma cell lines MCF-7; test: In vitro cytotoxic activity, Calcein AM assay, MCF7; type: cell-based, human; conditions: 72 hours, read-out: IC 50 MCF7
In short: (§1)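 10^4 cells/well, 24 h stabilisation; cpd 6 × 4-fold dilutions, top 166.7 μM, duplicates, 72 h, 37 °C, 5% CO2; Calcein AM 1 h, fluorescence vs untreated controls; GI50 from curve.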

[2] = tested on: human malignant melanoma cells G361; test: In vitro cytotoxic activity, Calcein AM assay, G-361; type: cell-based; conditions: 72 hours, read-out: IC 50 G-361
Excerpt: One of the parameters used, as the basis for cytotoxicity assays, is the metabolic activity of viable cells. For example, a microtiter assay, which uses the Calcein AM, is now widely used to quantitate cell proliferation and cytotoxicity. For instance, this assay is used in drug screening programs and in chemosensitivity testing. Because only metabolically active cells cleave Calcein AM, these assays detect viable cells exclusively. The quantity of reduced Calcein AM corresponds to the number of vital cells in the culture.
Human T-lymphoblastic leukemia cell line CEM; promyelocytic HL-60 and monocytic U937 leukemias; breast carcinoma cell lines MCF-7; cervical carcinoma cells HELA; mouse fibroblasts NIH3T3; human erythroleukaemia K562 and human malignant melanoma cells G361 were used for routine screening of compounds. The cells were maintained in Nunc/Corning 80 cm^2 plastic tissue culture flasks and cultured in cell culture medium (DMEM with 5 g/l glucose, 2 mM glutamine, 100 U/ml penicillin, 100 μg/ml streptomycin, 10% fetal calf serum and sodium bicarbonate).
The cell suspensions that were prepared and diluted according to the particular cell type and the expected target cell density (10^4 cells per well based on cell growth characteristics) were added by pipette (80 μl) into 96/well microtiter plates. Inoculates were allowed a pre-incubation period of 24 hours at 37° C. and 5% CO2 for stabilisation. Four-fold dilutions of the intended test concentration were added at time zero in 20 μl aliquots to the microtiter plate wells. Usually, test compound was evaluated at six 4-fold dilutions. In routine testing, the highest well concentration was 166.7 μM, but it can be the matter of change dependent on the agent. All drug concentrations were examined in duplicates. Incubations of cells with the test compounds lasted for 72 hours at 37° C., in 5% CO2 atmosphere and 100% humidity. At the end of incubation period, the cells were assayed by using the Calcein AM. Ten microliters of the stock solution were pipetted into each well and incubated further for 1 hours. Fluorescence (FD) was measured with the Labsystem FIA Reader Fluoroscan Ascent (UK). The tumour cell survival (GI50) was calculated using the following equitation: GI50=(FDdrug exposed well/mean FDcontrol wells)×100%. The GI50 value, the drug concentration lethal to 50% of the tumour cells, was calculated from the obtained dose response curves (FIG. 3).

HOS = test: In vitro cytotoxic activity, Calcein AM assay, HOS; type: cell-based; conditions: 72 hours
[3] = tested on: human erythroleukaemia K562; test: In vitro cytotoxic activity, Calcein AM assay, K-562; type: cell-based; conditions: 72 hours, read-out: IC 50 K-562
In short: as §1

[4] = tested on: Human T-lymphoblastic leukemia cell line CEM; test: In vitro cytotoxic activity, Calcein AM assay, CEM; type: cell-based; conditions: 72 hours
In short: as §1

promyelocytic HL-60 = test: In vitro cytotoxic activity, Calcein AM assay, HL60; type: cell-based, human; conditions: 72 hours, read-out: IC 50 HL60
In short: as §1

mouse fibroblasts NIH3T3 = test: In vitro cytotoxic activity, Calcein AM assay, NIH-3T3; type: cell-based; conditions: 72 hours, read-out: IC 50 NIH-3T3
In short: as §1

[5] = tested on: human diploid fibroblasts (HCA cells); test: Inhibition of senescence of mammal cells: β-galactosidase staining of senescent cells; type: cell-based
Protocol: In this example, human diploid fibroblasts (HCA cells with different levels of passage: passage 25—labelling HCA25; passage 45—labelling HCA45; passage 80—labelling HCA80) were used for studying β-galactosidase activity. Medium used for cells cultivation was removed, cells were washed twice with PBS and fixed in 2-3 ml of fixation agent consisting of 2% of formaldehyde and 0.2% of flutaraldehyde in PBS. Cells were incubated at room temperature for 5 min and subsequently washed twice with PBS. Cells were then incubated at 37° C. (without CO2) for 1 to 16 hours in 2-3 ml of solution comprising potassium ferricyanide (5 mM), potassium ferrocyanide (5 mM), MgCl2 (2 mM), X-gal (5-bromo-4-chloro-3-indolyl-β-D-galactopyranoside) (1 mg/ml) in citrate/phosphate buffer, pH 6.0. […] In this experiment only senescent cells were labelled due to the effect of β-galactosidase on the substrate.

Compound	IC50 [1]	IC50 [2]	IC50 (HOS)	IC50 [3]	IC50 [4]	IC50 (promyelocytic HL-60)	IC50 (mouse fibroblasts NIH3T3)	Senescent cells (%) HCA25 ([5]; passage 25)	Senescent cells (%) HCA45 ([5]; passage 45)	Senescent cells (%) HCA80 ([5]; passage 80)
COc1cccc(CNc2nc(Cl)nc3c2ncn3[C@@H]2O[C@H](CO)[C@@H](O)[C@H]2O)c1O [R2 = Cl, 2-hydroxy-3-methoxybenzylamino]	23 µM	140 µM	> 167 µM	17 µM	0.2 µM	0.1 µM	> 167 µM			
OC[C@H]1O[C@@H](n2cnc3c(NCc4ccccc4O)nc(Cl)nc32)[C@H](O)[C@@H]1O [R2 = Cl, 2-hydroxybenzylamino]	10.5 µM	> 167 µM	2.5 µM	75 µM	0.56 µM	0.38 µM	35.1 µM			
OC[C@H]1O[C@@H](n2cnc3c(Nc4cccc(Cl)c4)ncnc32)[C@H](O)[C@@H]1O [3-chloroanilino]								4%	4%	27%
COc1ccccc1CNc1nc(SC)nc2c1ncn2[C@@H]1O[C@H](CO)[C@@H](O)[C@H]1O [R2 = SCH3,2-methoxyxybenzylamino]	> 167 µM	> 167 µM	34.3 µM	34.8 µM	11.5 µM	10.2 µM	> 167 µM			
COc1cccc(CNc2nc(SC)nc3c2ncn3[C@@H]2O[C@H](CO)[C@@H](O)[C@H]2O)c1 [R2 = SCH3,3-methoxyxybenzylamino]	> 167 µM	> 167 µM	> 167 µM	> 167 µM	16.5 µM	8.8 µM	> 167 µM			
OC[C@H]1O[C@@H](n2cnc3c(NCc4ccc(O)cc4)nc(Cl)nc32)[C@H](O)[C@@H]1O [R2 = Cl, 4-hydroxybenzylamino]	> 167 µM	> 167 µM	> 167 µM	> 167 µM	39.7 µM	9.5 µM	> 167 µM			
OC[C@H]1O[C@@H](n2cnc3c(NCc4cccc(F)c4)nc(Cl)nc32)[C@H](O)[C@@H]1O [R2 = Cl, 3-fluorobenzylamino]	16 µM	16 µM	> 167 µM	5.3 µM	3 µM	0.9 µM	> 167 µM			
COc1ccccc1CNc1nc(N)nc2c1ncn2[C@@H]1O[C@H](CO)[C@@H](O)[C@H]1O [R2 = NH2,2-methoxyxybenzylamino, 2-amino-6-(2-methoxybenzylamino)purine riboside]	> 167 µM	> 167 µM	27.8 µM	34.9 µM	12.8 µM	7.8 µM	> 167 µM			
